pIC50, pKd: −log10 of the molar value.
What was measured:
Interleukin-23 receptor [1] = target: T1, Interleukin-23 receptor (Homo sapiens, UniProt Q5VWK5); experiment: Binding affinity to recombinant human flag/His-tagged IL-23R (1 to 353 residues) expressed in HEK293F cells measured over 90 secs by surface plasmon resonance assay
T1 sequence (Q5VWK5 whole entry): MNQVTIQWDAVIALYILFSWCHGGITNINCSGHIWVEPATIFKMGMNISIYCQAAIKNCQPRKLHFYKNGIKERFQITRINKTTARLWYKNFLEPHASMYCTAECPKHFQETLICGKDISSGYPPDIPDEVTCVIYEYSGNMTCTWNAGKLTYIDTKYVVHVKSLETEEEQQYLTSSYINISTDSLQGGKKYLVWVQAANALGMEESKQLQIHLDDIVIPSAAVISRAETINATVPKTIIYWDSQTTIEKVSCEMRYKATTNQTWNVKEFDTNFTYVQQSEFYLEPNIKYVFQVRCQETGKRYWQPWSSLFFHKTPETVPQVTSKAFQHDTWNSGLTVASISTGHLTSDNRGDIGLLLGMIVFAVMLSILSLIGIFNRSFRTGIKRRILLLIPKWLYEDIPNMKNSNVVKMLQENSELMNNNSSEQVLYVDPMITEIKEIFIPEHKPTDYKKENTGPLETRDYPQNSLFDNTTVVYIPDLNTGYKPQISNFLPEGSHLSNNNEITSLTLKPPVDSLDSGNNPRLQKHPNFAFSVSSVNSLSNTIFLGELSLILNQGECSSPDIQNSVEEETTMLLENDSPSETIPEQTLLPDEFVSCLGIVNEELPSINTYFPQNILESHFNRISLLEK

Interleukin-23 receptor [2] = target: T1, Interleukin-23 receptor; experiment: Binding affinity to recombinant human flag/His-tagged IL-23R (1 to 353 residues) expressed in HEK293F cells assessed as disruption of biotinylated IL-23 binding to receptor preincubated for 1 hr followed by biotinylated IL-23 addition measured after over night incubation by AlphaLISA assay; type: cell-based
Interleukin-23 receptor [3] = target: T1, Interleukin-23 receptor; experiment: Binding affinity to recombinant human flag/His-tagged IL-23R (1 to 353 residues) expressed in HEK293F cells assessed as dissociation rate constant measured over 90 secs by surface plasmon resonance assay
Interleukin-23 receptor [4] = target: T1, Interleukin-23 receptor; experiment: Binding affinity to recombinant human flag/His-tagged IL-23R (1 to 353 residues) expressed in HEK293F cells assessed as disruption of biotinylated IL-23 binding to receptor preincubated for 1 hr followed by biotinylated IL-23 addition measured after 1 hr by TR-FRET assay; type: cell-based
[5] = target: T2, Interleukin-23 receptor (Homo sapiens) (UniProt Q5VWK5); experiment: Binding affinity to recombinant human flag/His-tagged IL-23R (1 to 353 residues) expressed in HEK293F cells assessed as association rate constant measured over 90 secs by surface plasmon resonance assay
T2 sequence (whole entry): T1 sequence (Q5VWK5 whole entry)

pKd (Interleukin-23 receptor [1]): 8.70 to 8.74
pIC50 (Interleukin-23 receptor [2]): 8.57
Kd (Interleukin-23 receptor [3]): 2.74 ×10⁻² (1/s)
pIC50 (Interleukin-23 receptor [4]): 8.29
Ka [5]: 1.51 ×10⁷ (1/Ms)
Structure (SMILES): CC(=O)N[C@H]1CCSC[C@@H](C(=O)N[C@@H](Cc2ccc(OCCN)cc2)C(=O)N[C@@H](Cc2c[nH]c3ccccc23)C(=O)N[C@@](C)(CCCCN)C(=O)N[C@@H](CCC(=O)O)C(=O)N[C@@H](CC(N)=O)C(=O)NCC(N)=O)NC(=O)[C@H](CCC(N)=O)NC(=O)[C@H](Cc2c[nH]c3ccccc23)NC(=O)[C@H]([C@@H](C)O)NC(=O)[C@H](CCC(N)=O)NC1=O
